Laboratory results as given in patent US9593108B2, “Compounds and methods for antiviral treatment” (PTC Therapeutics, Inc., priority 2009, dated 2017).
pIC50: −log10 of the molar value.

Assays:
[1] = test system: HCV replicon RNA (GenBank Accession No. AJ242654); test: HCV Replicon Assay (replicon RNA reduction and/or Fluc reporter signal); assay type: cell-based, Hepatitis C virus; settings: Hepatitis C virus, 72 h, replicon-containing cells cultured with test compound for up to 3 days
Summary of the method: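 IC50 values mostly reflect the drop in replicon RNA, though Fluc reporter signal may also be used. Compound incubated with cells carrying the bicistronic replicon for as long as 3 days; interferon served as positive control.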

Structure (SMILES) | melting point | pIC50 [1]
C[C@H](NS(=O)(=O)c1ccc(-c2c(C#N)c3cc(C(F)(F)F)cnc3n2C2CCC2)nc1)C(F)(F)F [Cpd 227, 6-[3-cyano-1-cyclobutyl-5-(trifluoromethyl)-1H-pyrrolo[2,3-b]pyridin-2-yl]-N-[(2S)-1,1,1-trifluoropropan-2-yl]pyridine-3-sulfonamide] | 183 to 185 °C | > 6.30
C[C@@H](NS(=O)(=O)c1ccc(-c2c(C#N)c3cc(C(F)(F)F)cnc3n2C2CCC2)nc1)C(F)(F)F [Cpd 228, 6-[3-cyano-1-cyclobutyl-5-(trifluoromethyl)-1H-pyrrolo[2,3-b]pyridin-2-yl]-N-[(2R)-1,1,1-trifluoropropan-2-yl]pyridine-3-sulfonamide] | 190 to 192 °C | > 6.30
C[C@H](NS(=O)(=O)c1ccc(-c2c(C#N)c3cc(C(F)(F)F)cnc3n2C2CCCC2)nc1)C(F)(F)F [Cpd 229, 6-[3-cyano-1-cyclopentyl-5-(trifluoromethyl)-1H-pyrrolo[2,3-b]pyridin-2-yl]-N-[(2S)-1,1,1-trifluoropropan-2-yl]pyridine-3-sulfonamide] | 205 to 207 °C | > 6.30
C[C@@H](NS(=O)(=O)c1ccc(-c2c(C#N)c3cc(C(F)(F)F)cnc3n2C2CCCC2)nc1)C(F)(F)F [Cpd 230, 6-[3-cyano-1-cyclopentyl-5-(trifluoromethyl)-1H-pyrrolo[2,3-b]pyridin-2-yl]-N-[(2R)-1,1,1-trifluoropropan-2-yl]pyridine-3-sulfonamide] | 208 to 210 °C | > 6.30
CC[C@H](NS(=O)(=O)c1ccc(-c2c(C#N)c3cc(OC)cnc3n2C2CCC2)nc1)C(F)(F)F [Cpd 232, 6-(3-cyano-1-cyclobutyl-5-methoxy-1H-pyrrolo[2,3-b]pyridin-2-yl)-N-[(2S)-1,1,1-trifluorobutan-2-yl]pyridine-3-sulfonamide] | 186 to 191 °C | > 6.30
CC[C@H](NS(=O)(=O)c1ccc(-c2c(C#N)c3cc(Cl)cnc3n2C2CCCC2)nc1)C(F)(F)F [Cpd 233, 6-(5-chloro-3-cyano-1-cyclopentyl-1H-pyrrolo[2,3-b]pyridin-2-yl)-N-[(2S)-1,1,1-trifluorobutan-2-yl]pyridine-3-sulfonamide] | 180 to 185 °C | > 6.30
C[C@H](NS(=O)(=O)c1ccc(-c2c(C#N)c3ncc(Cl)cc3n2C2CCC2)nc1)C(F)(F)F [Cpd 234, 6-(6-chloro-3-cyano-1-cyclobutyl-1H-pyrrolo[3,2-b]pyridin-2-yl)-N-[(2S)-1,1,1-trifluoropropan-2-yl]pyridine-3-sulfonamide] | 201 to 205 °C | > 6.30
C[C@H](NS(=O)(=O)c1ccc(-c2c(C#N)c3ncc(Cl)cc3n2C2CCC2)cc1)C(F)(F)F [Cpd 235, 4-(6-chloro-3-cyano-1-cyclobutyl-1H-pyrrolo[3,2-b]pyridin-2-yl)-N-[(2S)-1,1,1-trifluoropropan-2-yl]benzenesulfonamide] | 205 to 210 °C | 5.70 to 6.30
COc1cnc2c(c1)c(C#N)c(-c1ccc(S(=O)(=O)N[C@@H](C)C(F)(F)F)c[n+]1[O-])n2C1CCC1 [Cpd 236, 6-(3-cyano-1-cyclobutyl-5-methoxy-1H-pyrrolo[2,3-b]pyridin-2-yl)-N-[(2S)-1,1,1-trifluoropropan-2-yl]pyridine-3-sulfonamide 1-oxide] | 155 to 157 °C | 5.30 to 5.70
C[C@H](NS(=O)(=O)c1ccc(-c2c(C#N)c3cc(-c4cccs4)cnc3n2C2CCC2)nc1)C(F)(F)F [Cpd 237, 6-[3-cyano-1-cyclobutyl-5-(thiophen-2-yl)-1H-pyrrolo[2,3-b]pyridin-2-yl]-N-[(2S)-1,1,1-trifluoropropan-2-yl]pyridine-3-sulfonamide] | 206 to 208 °C | 5.30 to 5.70
C[C@@H](NS(=O)(=O)c1ccc(-c2c(C#N)c3cc(-c4cccs4)cnc3n2C2CCC2)nc1)C(F)(F)F [Cpd 238, 6-[3-cyano-1-cyclobutyl-5-(thiophen-2-yl)-1H-pyrrolo[2,3-b]pyridin-2-yl]-N-[(2R)-1,1,1-trifluoropropan-2-yl]pyridine-3-sulfonamide] | 198 to 199 °C | 5.30 to 5.70
C[C@H](NS(=O)(=O)c1ccc(-c2c(C#N)c3cc(N4CCCC4)cnc3n2C2CCC2)nc1)C(F)(F)F [Cpd 239, 6-[3-cyano-1-cyclobutyl-5-(pyrrolidin-1-yl)-1H-pyrrolo[2,3-b]pyridin-2-yl]-N-[(2S)-1,1,1-trifluoropropan-2-yl]pyridine-3-sulfonamide] | 207 to 209 °C | 5.70 to 6.30
C[C@@H](NS(=O)(=O)c1ccc(-c2c(C#N)c3cc(N4CCCC4)cnc3n2C2CCC2)nc1)C(F)(F)F [Cpd 240, 6-[3-cyano-1-cyclobutyl-5-(pyrrolidin-1-yl)-1H-pyrrolo[2,3-b]pyridin-2-yl]-N-[(2R)-1,1,1-trifluoropropan-2-yl]pyridine-3-sulfonamide] | 207 to 209 °C | 5.70 to 6.30
COc1cc2c(C#N)c(-c3ccc(S(=O)(=O)N[C@@H](C)C(F)(F)F)cn3)n(C3CCC3)c2nc1C [Cpd 242, 6-(3-cyano-1-cyclobutyl-5-methoxy-6-methyl-1H-pyrrolo[2,3-b]pyridin-2-yl)-N-[(2S)-1,1,1-trifluoropropan-2-yl]pyridine-3-sulfonamide] | 175 to 177 °C | > 6.30
COc1cc2c(C#N)c(-c3ccc(S(=O)(=O)N[C@H](C)C(F)(F)F)cn3)n(C3CCC3)c2nc1C [Cpd 243, 6-(3-cyano-1-cyclobutyl-5-methoxy-6-methyl-1H-pyrrolo[2,3-b]pyridin-2-yl)-N-[(2R)-1,1,1-trifluoropropan-2-yl]pyridine-3-sulfonamide] | 175 to 177 °C | 5.30 to 5.70
CC(C)NS(=O)(=O)c1ccc(-c2c(C#N)c3cc(C(F)(F)F)cnc3n2C2CCC2)nc1 [Cpd 244, 6-[3-cyano-1-cyclobutyl-5-(trifluoromethyl)-1H-pyrrolo[2,3-b]pyridin-2-yl]-N-(propan-2-yl)pyridine-3-sulfonamide] | 186 to 187 °C | > 6.30
CCCS(=O)(=O)Nc1ccc(-c2c(C#N)c3cc(C(F)(F)F)cnc3n2C2CCC2)cc1 [Cpd 247, N-{4-[3-cyano-1-cyclobutyl-5-(trifluoromethyl)-1H-pyrrolo[2,3-b]pyridin-2-yl]phenyl}propane-1-sulfonamide] | 180 to 181 °C | 5.70 to 6.30
COc1cnc2c(c1)c(C#N)c(-c1ccc(S(=O)(=O)N[C@@H](C)C(F)(F)F)cn1)n2C1CCCC1 [Cpd 248, 6-(3-cyano-1-cyclopentyl-5-methoxy-1H-pyrrolo[2,3-b]pyridin-2-yl)-N-[(2S)-1,1,1-trifluoropropan-2-yl]pyridine-3-sulfonamide] | 178 to 180 °C | > 6.30
C[C@@H](NS(=O)(=O)c1ccc(-c2c(C#N)c3cc(C4CC4)cnc3n2C2CCCC2)nc1)C(F)(F)F [Cpd 249, 6-(3-cyano-1-cyclopentyl-5-cyclopropyl-1H-pyrrolo[2,3-b]pyridin-2-yl)-N-[(2R)-1,1,1-trifluoropropan-2-yl]pyridine-3-sulfonamide] | 155 to 164 °C | 5.70 to 6.30
C[C@H](NS(=O)(=O)c1ccc(-c2c(C#N)c3cc(C4CC4)cnc3n2C2CCCC2)nc1)C(F)(F)F [Cpd 250, 6-(3-cyano-1-cyclopentyl-5-cyclopropyl-1H-pyrrolo[2,3-b]pyridin-2-yl)-N-[(2S)-1,1,1-trifluoropropan-2-yl]pyridine-3-sulfonamide] | 157 to 167 °C | > 6.30
Cc1cnc2c(c1)c(C#N)c(-c1ccc(S(=O)(=O)N[C@H](C)C(F)(F)F)cn1)n2C1CCCC1 [Cpd 254, 6-(3-cyano-1-cyclopentyl-5-methyl-1H-pyrrolo[2,3-b]pyridin-2-yl)-N-[(2R)-1,1,1-trifluoropropan-2-yl]pyridine-3-sulfonamide] | 155 to 162 °C | > 6.30
Cc1cnc2c(c1)c(C#N)c(-c1ccc(S(=O)(=O)NC3(C)CC3)cn1)n2C1CCCC1 [Cpd 256, 6-(3-cyano-1-cyclopentyl-5-methyl-1H-pyrrolo[2,3-b]pyridin-2-yl)-N-(1-methylcyclopropyl)pyridine-3-sulfonamide] | 143 to 153 °C | 5.70 to 6.30
COc1cnc2c(c1)c(C#N)c(-c1ccc(S(=O)(=O)N(C(C)=O)[C@@H](C)C(F)(F)F)cn1)n2C1CCCC1 [Cpd 257, N-{[6-(3-cyano-1-cyclopentyl-5-methoxy-1H-pyrrolo[2,3-b]pyridin-2-yl)pyridin-3-yl]sulfonyl}-N-[(2S)-1,1,1-trifluoropropan-2-yl]acetamide] | 169 to 173 °C | > 6.30
CCc1nc2c(cc1OC)c(C#N)c(-c1ccc(S(=O)(=O)N[C@@H](C)C(F)(F)F)cn1)n2C1CCC1 [Cpd 258, 6-(3-cyano-1-cyclobutyl-6-ethyl-5-methoxy-1H-pyrrolo[2,3-b]pyridin-2-yl)-N-[(2S)-1,1,1-trifluoropropan-2-yl]pyridine-3-sulfonamide] | 186 to 189 °C | > 6.30
CCc1nc2c(cc1OC)c(C#N)c(-c1ccc(S(=O)(=O)N[C@H](C)C(F)(F)F)cn1)n2C1CCC1 [Cpd 259, 6-(3-cyano-1-cyclobutyl-6-ethyl-5-methoxy-1H-pyrrolo[2,3-b]pyridin-2-yl)-N-[(2R)-1,1,1-trifluoropropan-2-yl]pyridine-3-sulfonamide] | 189 to 199 °C | 5.30 to 5.70
CCC(NS(=O)(=O)c1ccc(-c2c(C#N)c3cc(Cl)cnc3n2C2CCCC2)nc1)C(F)(F)F (stereo not drawn) [Cpd 260, 6-(5-chloro-3-cyano-1-cyclopentyl-1H-pyrrolo[2,3-b]pyridin-2-yl)-N-(1,1,1-trifluorobutan-2-yl)pyridine-3-sulfonamide] | 170 to 174 °C | > 6.30
CCC(NS(=O)(=O)c1ccc(-c2c(C#N)c3cc(OC)cnc3n2C2CCC2)nc1)C(F)(F)F (stereo not drawn) [Cpd 261, 6-(3-cyano-1-cyclobutyl-5-methoxy-1H-pyrrolo[2,3-b]pyridin-2-yl)-N-(1,1,1-trifluorobutan-2-yl)pyridine-3-sulfonamide] | 185 to 190 °C | > 6.30
